Test results reported in ChEMBL document CHEMBL6103587, “Anti-tumor effects of artemisinin-based oligomers: From monomer to trimer as a novel drug-enhancing strategy” (Eur J Med Chem, 2025).
One block for each molecule: values may come before it. Activity calls are given as the source filed them. The calls are words filed in the database; no cut-off is given here.

How the values were obtained:
MCF7 [1] = test: Antitumor activity against human MCF7 cells assessed as reduction in cell viability incubated for 72 hrs by CCK8 assay; assay type: functional, cell-based; conditions: MCF7, 72 h
MCF7 [2] = test: Antitumor activity against human MCF7 cells assessed as decrease in number of viable cells at 0.05 to 0.2 uM incubated for 24 hrs by Hoechst 33342 staining based confocal microscopic analysis; assay type: functional, cell-based; conditions: dose 0.05-0.2 µM
MCF7 [3] = test: Antitumor activity against human MCF7 cells assessed as decrease in nuclear volume at 0.05 to 0.2 uM incubated for 24 hrs by Hoechst 33342 staining based confocal microscopic analysis; assay type: functional, cell-based; conditions: dose 0.05-0.2 µM
MCF7 [4] = test: Antitumor activity against human MCF7 cells assessed as […] at 0.05 to 0.2 uM incubated for 24 hrs by Hoechst 33342 staining based confocal microscopic analysis; assay type: functional, cell-based; conditions: dose 0.05-0.2 µM
MCF7 [5] = test: Inhibition of colony formation in human MCF7 cells assessed as reduction in clone formation rate at 0.05 to 0.2 uM measured after 14 days by giemsa staining based dissection microscopic analysis; assay type: functional, cell-based; conditions: dose 0.05-0.2 µM, time 14.0 day
MCF7 [6] = test: Inhibition of colony formation in human MCF7 cells assessed as reduction in number of colonies measured after 14 days by giemsa staining based dissection microscopic analysis; assay type: functional, cell-based; conditions: dose 0.05-0.2 µM, time 14.0 day
MCF7 [7] = test: Induction of apoptosis in human MCF7 cells assessed as increase in death ratio at 0.05 to 0.2 uM by Annexin V-FITC/PI staining based flow cytometric analysis; assay type: functional, cell-based; conditions: dose 0.05-0.2 µM
Mitochondrial membrane [8] = test: Induction of mitochondrial membrane potential loss in human MCF7 cells assessed as reduction in JC-1 aggregate formation at 0.05 to 0.2 uM incubated for 48 hrs by JC-1 staining based confocal microscopic analysis; assay type: cell membranes; conditions: dose 0.05-0.2 µM
Mitochondrial membrane [9] = test: Induction of mitochondrial membrane potential loss in human MCF7 cells assessed as increase in JC-1 monomer level at 0.05 to 0.2 uM incubated for 48 hrs by JC-1 staining based confocal microscopic analysis; assay type: cell membranes; conditions: dose 0.05-0.2 µM
MCF7 [10] = test: Induction of apoptosis in human MCF7 cells assessed as increase in Bax level at 0.05 to 0.2 uM incubated for 48 hrs by Western blot analysis; assay type: functional, cell-based; conditions: dose 0.05-0.2 µM
MCF7 [11] = test: Induction of apoptosis in human MCF7 cells assessed as increase in caspase 3 level at 0.05 to 0.2 uM incubated for 48 hrs by Western blot analysis; assay type: functional, cell-based; conditions: dose 0.05-0.2 µM
MCF7 [12] = test: Induction of ferroptosis in human MCF7 cells assessed as reduction in GPX4 expression at 0.05 to 0.2 uM incubated for 48 hrs by Western blot analysis; assay type: functional, cell-based; conditions: dose 0.05-0.2 µM
MCF7 [13] = test: Induction of apoptosis in human MCF7 cells assessed as viable cells at 0.05 uM by Annexin V-FITC/PI staining based flow cytometric analysis (reference value: 92.01 %); assay type: functional; conditions: read-out: Activity
MCF7 [14] = test: Induction of apoptosis in human MCF7 cells assessed as early apoptotic cells at 0.05 uM by Annexin V-FITC/PI staining based flow cytometric analysis (reference value: 5.75 %); assay type: functional
MCF7 [15] = test: Induction of apoptosis in human MCF7 cells assessed as late apoptotic cells at 0.05 uM by Annexin V-FITC/PI staining based flow cytometric analysis (reference value: 1.97 %); assay type: functional
MCF7 [16] = test: Induction of apoptosis in human MCF7 cells assessed as necrotic cells at 0.05 uM by Annexin V-FITC/PI staining based flow cytometric analysis (reference value: 0.27 %); assay type: functional
MCF7 [17] = test: Induction of apoptosis in human MCF7 cells assessed as viable cells at 0.1 uM by Annexin V-FITC/PI staining based flow cytometric analysis (reference value: 92.01 %); assay type: functional; conditions: read-out: Activity
MCF7 [18] = test: Induction of apoptosis in human MCF7 cells assessed as early apoptotic cells at 0.1 uM by Annexin V-FITC/PI staining based flow cytometric analysis (reference value: 5.75 %); assay type: functional
MCF7 [19] = test: Induction of apoptosis in human MCF7 cells assessed as late apoptotic cells at 0.1 uM by Annexin V-FITC/PI staining based flow cytometric analysis (reference value: 1.97 %); assay type: functional
MCF7 [20] = test: Induction of apoptosis in human MCF7 cells assessed as necrotic cells at 0.1 uM by Annexin V-FITC/PI staining based flow cytometric analysis (reference value: 0.27 %); assay type: functional
MCF7 [21] = test: Induction of apoptosis in human MCF7 cells assessed as viable cells at 0.2 uM by Annexin V-FITC/PI staining based flow cytometric analysis (reference value: 92.01 %); assay type: functional; conditions: read-out: Activity
MCF7 [22] = test: Induction of apoptosis in human MCF7 cells assessed as early apoptotic cells at 0.2 uM by Annexin V-FITC/PI staining based flow cytometric analysis (reference value: 5.75 %); assay type: functional
MCF7 [23] = test: Induction of apoptosis in human MCF7 cells assessed as late apoptotic cells at 0.2 uM by Annexin V-FITC/PI staining based flow cytometric analysis (reference value: 1.97 %); assay type: functional
MCF7 [24] = test: Induction of apoptosis in human MCF7 cells assessed as necrotic cells at 0.2 uM by Annexin V-FITC/PI staining based flow cytometric analysis (reference value: 0.27 %); assay type: functional

SMILES: C[C@H]1[C@@H](OCCN)O[C@@H]2O[C@@]3(C)CC[C@H]4[C@H](C)CC[C@@H]1[C@@]24OO3
- IC50 (MCF7 [1]): > 10 µM

SMILES: C[C@H]1[C@@H](OCCNCCO[C@H]2O[C@@H]3O[C@@]4(C)CC[C@H]5[C@H](C)CC[C@@H]([C@H]2C)[C@@]35OO4)O[C@@H]2O[C@@]3(C)CC[C@H]4[C@H](C)CC[C@@H]1[C@@]24OO3
- IC50 (MCF7 [1]): 3.14 µM

SMILES: C[C@H]1[C@@H](OCCN(CCO[C@H]2O[C@@H]3O[C@@]4(C)CC[C@H]5[C@H](C)CC[C@@H]([C@H]2C)[C@@]35OO4)CCO[C@H]2O[C@@H]3O[C@@]4(C)CC[C@H]5[C@H](C)CC[C@@H]([C@H]2C)[C@@]35OO4)O[C@@H]2O[C@@]3(C)CC[C@H]4[C@H](C)CC[C@@H]1[C@@]24OO3
- IC50 (MCF7 [1]): 0.09 µM
- Activity (MCF7 [2]): Active
- Activity (MCF7 [3]): Active
- Activity (MCF7 [4]): Active
- inhibition (MCF7 [5]): Active
- inhibition (MCF7 [6]): Dose-dependent-effect
- Activity (MCF7 [7]): Active
- Activity (Mitochondrial membrane [8]): Active; Partial Loss Of Membrane Potential Observed
- Activity (Mitochondrial membrane [9]): Active; Partial Loss Of Membrane Potential Observed
- Activity (MCF7 [10]): Active
- Activity (MCF7 [11]): Active
- Activity (MCF7 [12]): Active
- viability at 0.05 µM (MCF7 [13]): 76.5%
- Activity (MCF7 [14]): 13.23%
- Activity (MCF7 [15]): 9.54%
- Activity (MCF7 [16]): 0.74%
- viability at 0.1 µM (MCF7 [17]): 74.4%
- Activity (MCF7 [18]): 14.22%
- Activity (MCF7 [19]): 10.27%
- Activity (MCF7 [20]): 1.14%
- viability at 0.2 µM (MCF7 [21]): 62.5%
- Activity (MCF7 [22]): 16.86%
- Activity (MCF7 [23]): 20.21%
- Activity (MCF7 [24]): 0.48%

- IC50 (MCF7 [1]): 4.33 µM
SMILES: Nc1ccn([C@@H]2O[C@H](CO)[C@@H](O)C2(F)F)c(=O)n1 [GEMCITABINE]

- IC50 (MCF7 [1]): > 10 µM
SMILES: C[C@H]1[C@@H](O)O[C@@H]2O[C@@]3(C)CC[C@H]4[C@H](C)CC[C@@H]1[C@@]24OO3 [ARTENIMOL]
